The source of these data is paper PMC9090415, “Discovery of small molecule inhibitors of Plasmodium falciparum apicoplast DNA polymerase” (Journal of Enzyme Inhibition and Medicinal Chemistry, 2022).

This experiment deals with T1, bacteriophage T4 DNA polymerase (Enterobacteria phage T4, UniProt P04415).
T1 construct: made in house
T1 sequence (P04415 1-898): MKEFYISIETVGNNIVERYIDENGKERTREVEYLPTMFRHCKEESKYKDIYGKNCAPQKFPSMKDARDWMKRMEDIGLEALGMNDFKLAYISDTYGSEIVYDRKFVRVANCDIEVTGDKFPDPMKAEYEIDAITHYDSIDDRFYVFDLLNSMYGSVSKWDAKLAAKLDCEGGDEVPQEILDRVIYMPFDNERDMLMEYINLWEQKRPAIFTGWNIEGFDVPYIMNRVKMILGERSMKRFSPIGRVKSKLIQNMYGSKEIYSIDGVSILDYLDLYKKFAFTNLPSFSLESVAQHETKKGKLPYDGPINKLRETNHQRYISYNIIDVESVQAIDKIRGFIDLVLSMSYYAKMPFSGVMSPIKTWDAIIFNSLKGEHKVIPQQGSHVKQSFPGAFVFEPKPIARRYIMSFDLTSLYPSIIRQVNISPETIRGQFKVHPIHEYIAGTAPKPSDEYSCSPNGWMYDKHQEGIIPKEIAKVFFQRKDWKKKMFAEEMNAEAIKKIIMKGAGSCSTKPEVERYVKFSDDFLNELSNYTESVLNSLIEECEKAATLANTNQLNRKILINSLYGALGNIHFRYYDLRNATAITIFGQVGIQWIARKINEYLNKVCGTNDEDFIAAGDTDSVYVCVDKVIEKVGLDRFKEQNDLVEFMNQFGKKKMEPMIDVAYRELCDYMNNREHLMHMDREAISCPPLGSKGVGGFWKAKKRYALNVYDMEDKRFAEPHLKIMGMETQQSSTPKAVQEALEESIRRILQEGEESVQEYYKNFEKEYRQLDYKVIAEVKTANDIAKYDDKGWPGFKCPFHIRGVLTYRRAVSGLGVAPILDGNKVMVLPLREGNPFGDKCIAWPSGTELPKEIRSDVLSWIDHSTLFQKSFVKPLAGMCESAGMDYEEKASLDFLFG
Kind of experiment: Counter-screen against bacteriophage T4 DNA polymerase. The class given is biochemical. The settings on record: for % inhibition T4 10' 2.5 / % inhibition T4 10' 5 / % inhibition T4 10' 10 / % inhibition T4 10' 20 / % inhibition T4 10' 40 / % inhibition T4 10' 80: read at 10'. How it is done:
Codon-optimized, exonuclease-deficient Pf-apPOL was overexpressed in E. coli BL21 (DE3) and purified as described. The protein was dialysed against two, 1-liter changes of 20 mM Tris-HCl (pH 8.0), 400 mM NaCl, and 20% glycerol. Plasmodium bergei and Babesia bovis apPOLs (Pb-apPOL and Bb-apPOL, respectively) were codon-optimized, expressed, and purified as for Pf-apPOL[15]. Bacteriophage T4 DNA polymerase was purified as described. The DNA oligonucleotides used to make the high-throughput substrate were obtained from Integrated DNA Technologies. Deoxynucleotides were purchased from Strategene. All other materials came from Fisher Scientific.
Each compound was tested in a dose-response format to determine IC50 values. […] T4 DNA polymerase can be produced in large quantities, and is in the same family (B-family) as the replicative human DNA polymerases (α, δ, and ε)[20].

Consider `CC(C)CC(C(=O)O)N1C(=O)C2C3C=CC(C2C1=O)C1C(=O)N(C(CC(C)C)C(=O)O)C(=O)C31` (stereo not drawn) [KU0193449], for which the “% inhibition T4 10' 2.5” value by setting is: (DRC-1, concentration 2.5) 3.278%; (DRC-2, concentration 2.5) 4.54%. Further, the “% inhibition T4 10' 5” value by setting is: (DRC-1, concentration 5) 4.491%; (DRC-2, concentration 5) 4.24%. The “% inhibition T4 10' 10” value reads like this: (DRC-1, concentration 10) 8.777%; (DRC-2, concentration 10) 10%. Besides, the “% inhibition T4 10' 20” value is, setting by setting: (DRC-1, concentration 20) 7.866%; (DRC-2, concentration 20) 15%. Besides, the “% inhibition T4 10' 40” value amounted to 21.6809% (DRC-1, concentration 40) and 28% (DRC-2, concentration 40). Besides, the “% inhibition T4 10' 80” value is, setting by setting: (DRC-1, concentration 80) 52.1619%; (DRC-2, concentration 80) 55%. Also, the “% inhibition T4 70' 2.5” value (DRC-1, read at 70', concentration 2.5) is given as 0.3673%. For the same compound, the “% inhibition T4 70' 5” value (DRC-1, read at 70', concentration 5) was 1.3204%. Further, the “% inhibition T4 70' 10” value (DRC-1, read at 70', concentration 10) amounted to 2.619%. Also, the “% inhibition T4 70' 20” value (DRC-1, read at 70', concentration 20) was 3.878%. Besides, under “DRC-1, read at 70', concentration 40”, the “% inhibition T4 70' 40” value was determined as 15.5336%. Besides, the “% inhibition T4 70' 80” value (DRC-1, read at 70', concentration 80) came out at 40.8979%. Further, the “% inhibition T4 130' 2.5” value (DRC-1, read at 130', concentration 2.5) is reported as -2.364%. Also, the “% inhibition T4 130' 5” value (DRC-1, read at 130', concentration 5) is listed as -1.909%. Where the note is “DRC-1, read at 130', concentration 10”, the “% inhibition T4 130' 10” value is -0.6043%. The “% inhibition T4 130' 20” value (DRC-1, read at 130', concentration 20) is recorded as 0.2689%. For the same compound, the “% inhibition T4 130' 40” value (DRC-1, read at 130', concentration 40) came to 11.2312%. The “% inhibition T4 130' 80” value (DRC-1, read at 130', concentration 80) is recorded as 34.0378%. Besides, where the note is “DRC-2, read at 40', concentration 2.5”, the “% inhibition T4 40' 2.5” value worked out at 4.54%. Further, the “% inhibition T4 40' 5” value (DRC-2, read at 40', concentration 5) is on record as 4.24%. Further, where the note is “DRC-2, read at 40', concentration 10”, the “% inhibition T4 40' 10” value is 10%. Where the note is “DRC-2, read at 40', concentration 20”, the “% inhibition T4 40' 20” value was 15%. In addition, for the setting “DRC-2, read at 40', concentration 40”, the “% inhibition T4 40' 40” value is given as 28%. The “% inhibition T4 40' 80” value (DRC-2, read at 40', concentration 80) came to 55%. In addition, the “% inhibition T4 90' 2.5” value (DRC-2, read at 90', concentration 2.5) worked out at 4%. Also, the “% inhibition T4 90' 5” value (DRC-2, read at 90', concentration 5) amounted to 3%. Moreover, the “% inhibition T4 90' 10” value (DRC-2, read at 90', concentration 10) is reported as 7%. For the same compound, the “% inhibition T4 90' 20” value (DRC-2, read at 90', concentration 20) was 11%. The “% inhibition T4 90' 40” value (DRC-2, read at 90', concentration 40) is listed as 24%. Moreover, the “% inhibition T4 90' 80” value (DRC-2, read at 90', concentration 80) was determined as 52%. The “% inhibition T4 180' 2.5” value (DRC-2, read at 180', concentration 2.5) is -1%. The “% inhibition T4 180' 5” value (DRC-2, read at 180', concentration 5) is reported as -1.88%. Under “DRC-2, read at 180', concentration 10”, the “% inhibition T4 180' 10” value is on record as 0.586%. Moreover, the “% inhibition T4 180' 20” value (DRC-2, read at 180', concentration 20) was 2.64%. Further, the “% inhibition T4 180' 40” value (DRC-2, read at 180', concentration 40) was 15%. Moreover, the “% inhibition T4 180' 80” value (DRC-2, read at 180', concentration 80) was 45%.
Turning to `CCOC(=O)C1=C2c3cc(OC)c(OC)cc3CC(C)(C)N2C(=O)C1=O` [KU0193659], the “% inhibition T4 10'” value (DRC-2, concentration 2.5) was found to be 9%; the “% inhibition T4 10'” value (DRC-2, concentration 5) was found to be 6.54%; the “% inhibition T4 10'” value (DRC-2, concentration 10) is given as 23%; the “% inhibition T4 10'” value (DRC-2, concentration 20) is reported as 29%; the “% inhibition T4 10'” value (DRC-2, concentration 40) came out at 38%; the “% inhibition T4 10'” value (DRC-2, concentration 80) came to 45%. In addition, the “% inhibition T4 40'” value runs as follows: (DRC-2, concentration 2.5) 9%; (DRC-2, concentration 5) 6.54%; (DRC-2, concentration 10) 23%; (DRC-2, concentration 20) 29%; (DRC-2, concentration 40) 38%; (DRC-2, concentration 80) 45%. The “% inhibition T4 90'” value runs as follows: (DRC-2, concentration 2.5) 8%; (DRC-2, concentration 40) 37%; (DRC-2, concentration 80) 44%. The “% inhibition T4 180'” value runs as follows: (DRC-2, concentration 2.5) 9%; (DRC-2, concentration 5) 8%; (DRC-2, concentration 40) 37%; (DRC-2, concentration 80) 44%.
`CC1(C)CC(=O)C2=C(C1)OC1=C(C(=O)CC(C)(C)C1)C2c1ccc(O)cc1` [KU0194226]: the “% inhibition T4 10'” value (DRC-2, concentration 40) is 18%. Moreover, the “% inhibition T4 40'” value (DRC-2, concentration 5) is listed as 17%; the “% inhibition T4 40'” value (DRC-2, concentration 10) is on record as 18%; the “% inhibition T4 40'” value (DRC-2, concentration 40) turned out to be 12%; the “% inhibition T4 40'” value (DRC-2, concentration 80) was 30%. Also, the “% inhibition T4 90'” value by setting is: (DRC-2, concentration 10) 17%; (DRC-2, concentration 40) 12%; (DRC-2, concentration 80) 30%. Further, the “% inhibition T4 180'” value was determined as 18% (DRC-2, concentration 2.5); 12% (DRC-2, concentration 5); 12% (DRC-2, concentration 40); 30% (DRC-2, concentration 80).
In the case of `O=C1CCCC2=C1C(c1ccccn1)C1=C(CCCC1=O)O2` [KU0194228], the “% inhibition T4 10'” value (DRC-2, concentration 10) is listed as 18%. Also, under “DRC-2, concentration 20”, the “% inhibition T4 40'” value was 18%.
